These results are taken from patent publication US7026360B1, “Pharmaceutical compositions containing compounds with activity for the enhancement of absorption of active ingredients” (Inpharma S.A., priority 1999, dated 2006).

This data set in a line: Absorption after 8 hours of topical antiinflammatory formulations with or without 3% PFPE through pig skin, Franz cells (Example C). Type of data set: in vitro ADME. Conditions: topical formulation; for mcg of permeated active ingredient after 8 hours, Base formula: base formula without PFPE. Here is the method: Apparatus: Franz Cells (manufacturer: Crown Glass Company Inc., New Jersey) Franz diffusion cells are one of the main systems used for the investigation of ex-vivo permeation. This study involved the use of three cells each with a 9 mm diameter donor compartment corresponding with a diffusion area of 64 mm^2. The receptor compartment has a capacity of 4.8 ml. The receptor chamber is heated to 37° C.± 1. The pig skin is placed between the donor compartment and the receptor chamber with the external skin surface facing the upper compartment. The test formulation is placed inside the donor compartment. The receptor chamber is filled with a phosphate buffer solution at pH 7.4 and at intervals between 0.5 and 8 hours, 2 ml of solution are drawn from this chamber. When each sample is taken fresh buffer solution heated to 37° C. is added in order to replenish the initial volume. The samples are then tested using a HPLC method. Each test is repeated three times. Verification of absorption after 8 hours, of topical formulations containing antiinflammatory drugs versus formulations which also contain 3% PFPE, through pig skin, using Franz cells, as described in Example A.

Regarding `CN1C(C(=O)Nc2ccccn2)=C(O)c2ccccc2S1(=O)=O` [Piroxicam], the “mcg of permeated active ingredient after 8 hours, Base formula + 3% PFPE” value (“mcg … Base formula + 3% PFPE” for short) turned out to be 7.94 µg and the “mcg of permeated active ingredient after 8 hours, Base formula” value was found to be 1.19 µg.

Turning to `O=C(O)Cc1ccccc1Nc1c(Cl)cccc1Cl` [Diclofenac Sodium], the “mcg … Base formula + 3% PFPE” value was found to be 8.66 µg and the “mcg of permeated active ingredient after 8 hours, Base formula” value turned out to be 1.82 µg.

As to `CC(C)Cc1ccc(C(C)C(=O)O)cc1` (centres unmarked) [Ibuprofen], the “mcg … Base formula + 3% PFPE” value worked out at 6.84 µg and the “mcg of permeated active ingredient after 8 hours, Base formula” value came to 0.21 µg.

Turning to `CCc1cccc2c3c([nH]c12)C(CC)(CC(=O)O)OCC3` (centres unmarked) [Etodolic Acid], the “mcg … Base formula + 3% PFPE” value is 9.93 µg and the “mcg of permeated active ingredient after 8 hours, Base formula” value was determined as 0.53 µg.
